Article PMC13233288, “Spider venom peptides Ht1a and Gg1a are toxic to honeybee parasite Varroa destructor by topical application” (npj Drug Discovery, 2026)
Entries after “also recorded” stand apart in the source; their conditions may differ. No end group written: not given here.

Experiments:
hCaV2.2 = experiment: FLIPR Ca2+ fluorescence, KCl/CaCl2-stimulated SH-SY5Y cells; type: cell-based, human; details: 10 µM, added 5 min prior to KCl/CaCl2 (90 mM/5 mM)
Method: To further test the selectivity of sHt1a and sGg1a, we examined their activity on hNaV1.2/NaV1.7 and hCaV2.2 channels, as well as the hα3β2/4 nicotinic acetylcholine receptor (nAchR), that are endogenously expressed in the neuroblastoma cell line SH-SY5Y using a high-throughput fluorescent assay as previously described. In brief, SH-SY5Y cells were seeded at a density of 40,000 cells/well in black-walled imaging plates (Corning, Lowell, MA, USA), then incubated for 48 h at 37 °C in a 5% humidified CO2 incubator. On the day of the assay, cells were loaded with Calcium 4 No-wash dye (Molecular Devices) by reconstituting the lyophilised dye in physiological salt solution (PSS in mM: 140 NaCl, 11.5 glucose, 5.9 KCl, 1.4 MgCl2, 1.2 NaH2PO4, 5 NaHCO3, 1.8 CaCl2, 10 HEPES, pH 7.4). Cells were incubated with the dye for 30 min at 37 °C in a 5% humidified CO2 incubator. Gg1a and Ht1a (10 µM) were added 5 min prior to stimulation with either veratridine (50 µM, hNaV1.2/NaV1.7 activator), nicotine (30 µM, hα3β2/4 nAchR activator) or KCl/CaCl2 (90 mM/5 mM, CaV1.3/2.2 activator) Fluorescent responses were recorded using a FLIPR^Penta fluorescent plate reader (Molecular Devices) with excitation at 470–495 nm and emission at 515–575 nm.

V. destructor mites = experiment: Topical varroa assay of venom fractions / purified native peptides; type: in vivo, Varroa destructor; details: native peptide / HPLC fraction; Ht1a three cohorts of 5 mites, Gg1a two cohorts of 5 mites
Method: An outline of the project discovery pipeline is presented in Supplementary Fig. 1. To identify varroacidal venom peptides, we screened venoms for activity against V. destructor by topical application. Topical tests were performed in several stages. First, whole venom was tested to determine mortality for V. destructor. Hit venoms were then subjected to several fractionation steps to isolate the active compounds. For the initial venom screen, a panel of 50 arthropod venoms (Table 1) were topically applied to V. destructor mites. Venoms were dissolved in 90% acetonitrile (v/v), and a 10 μg venom aliquot was applied per mite (n = 5 mites per venom). The dorsal plate of V. destructor mites (average mass 0.38 mg) was fixed to adhesive tape (ScotchTM 666 3 M; 19 × 32.9 mm, double sided) on microscope slides (ground edges 90° frosted end, 76 × 26 mm). A Nanoject II (Automatic Injector with Glass Capillaries, Drummond Cat.No. 3-000-205 A) was used for topical application of venom and control (90% acetonitrile) solutions. […] Mite mortality was determined at various time intervals up to 48 h after the treatment using an Olympus stereomicroscope (SZX10/SZX2 Series). […] The percentage of mite mortality for each venom was calculated at 2, 6 and 24 h, and adjusted by correcting for the mortality of the corresponding control group receiving only 90% acetonitrile. […]

Substance	effect on CaV2.2 (hCaV2.2)	effect on CaV2.2 (hCaV2.2; listed as sHt1a)	topical varroacidal activity (V. destructor mites)	effect on CaV2.2 (hCaV2.2; listed as sGg1a)
KYCAPRKAVCNTPADCCDKSSRCAYPNYGLGYYLDSEFFGKRKICSWRL (also: bicyclic or more (positions not given here)) [Ht1a, μ-gradutoxin-Ht1a]	inactive	did not significantly affect	contained the varroacidal activity; also recorded: confirmed	–
U1-macrothelitoxin-Gg1a	inactive	–	topical varroacidal activity; also recorded: confirmed	did not significantly affect
